# Results reported in patent US20050107289A1, “Anti-microbial peptides and compositions” (priority 2001, published 2005).
# Counter-ions that a name gives are not always drawn. Like-named read-outs stand apart in the source and are kept apart here. Non-standard residues stand in square brackets, D forms with d. Residues, ends and D or L forms follow the SMILES beside them.
# Tests used:
# [1] = tested on: S. aureus (MRSA) ATCC 33591; assay type: cell-based, Staphylococcus aureus; conditions: Table 9
# In short: (§1)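 Broth macro- or microdilution MIC per NCCLS M7-A4. Peptides were serially 2-fold diluted in 5% DMSO/9% aqueous sucrose, about 400–2 μg/ml (dilution-series concentrations). Overnight cultures were diluted 4000-fold to an inoculum of about 2.5×10^5 cfu/ml.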
# [2] = tested on: murine red blood cells; assay: Red blood cell hemolysis; assay type: cell-based, mouse; set-up: RBC Hemolysis (HD50): unit not given here
# In short: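 Washed murine erythrocytes at 5% in saline with 10% FBS were exposed to serial peptide dilutions for 30 min at 37° C. Supernatant absorbance at 560 nm was read, with saline as 0% and 1% Triton X-100 as 100% hemolysis.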
# [3] = tested on: vancomycin-resistant Enterococus faecalis (VRE)(ATCC 51575); assay type: cell-based, Enterococcus faecalis; set-up: key to VRE (in vitro activity): peptide concentration in μg/ml (broth dilution assay); conditions: Table 9
# In short: as §1
# [4] = media b: cation adjusted Meuller Hinton broth (MHBII)
# [5] = media c: Brain Heart Infusion (BHI)
# [6] = media a: anti-microbial media-3 (AM-3)
Compound,"MRSA (in vitro activity) [1, 4]",RBC Hemolysis (HD50) [2],"VRE (in vitro activity) [3, 5]","MRSA (in vitro activity) [1, 6]",VRE (in vitro activity) ([3]; media a: AM-3),VRE (in vitro activity) ([3]; media b: MHBII),RBC Hemolysis (HD50) ([2]; Table 9)
"CC(C)C[C@H]1NC(=O)[C@H](CCCCN)NC(=O)[C@@H](CO)NC(=O)[C@H](CCCCN)NC(=O)[C@@H](CC(C)C)NC(=O)[C@H](Cc2c[nH]cn2)NC(=O)[C@@H](CC(C)C)NC(=O)[C@H](Cc2c[nH]cn2)NC1=O [SEQ ID NO:103, [KSKLHLHL]] (cyclo(K[dS]K[dL]H[dL]H[dL]))",>320,>320,>320,–,–,–,–
"CC(C)C[C@@H]1NC(=O)[C@@H](Cc2c[nH]c3ccccc23)NC(=O)[C@H](CCC(N)=O)NC(=O)[C@@H](Cc2ccccc2)NC(=O)[C@H](CCCCN)NC(=O)[C@@H](Cc2c[nH]c3ccccc23)NC1=O [SEQ ID NO:129, [KFQWLW]] (cyclo(K[dF]Q[dW]L[dW]))",–,>81,–,25,10,–,–
"CC(C)C[C@H]1NC(=O)[C@H](CCCCN)NC(=O)[C@@H](CC(N)=O)NC(=O)[C@H](CCC(N)=O)NC(=O)[C@@H](CC(N)=O)NC(=O)[C@H](CCCCN)NC(=O)[C@@H](CC(C)C)NC(=O)[C@H](Cc2c[nH]c3ccccc23)NC1=O [SEQ ID NO:90, [KNQNKLWL]] (cyclo(K[dN]Q[dN]K[dL]W[dL]))",>200,>200,>200,–,–,–,–
"CC(C)C[C@@H]1NC(=O)[C@@H](Cc2c[nH]c3ccccc23)NC(=O)[C@H](CCCCN)NC(=O)[C@@H](CCC(=O)O)NC(=O)[C@H](CCCCN)NC(=O)[C@@H](Cc2c[nH]c3ccccc23)NC1=O [SEQ ID NO:117, [KEKWLW]] (cyclo(K[dE]K[dW]L[dW]))",–,>121,–,101,91,–,–
"CC(C)C[C@@H]1NC(=O)[C@@H](Cc2c[nH]c3ccccc23)NC(=O)[C@H](CCCCN)NC(=O)[C@@H](CCCNC(=N)N)NC(=O)[C@H](CCCCN)NC(=O)[C@@H](Cc2c[nH]c3ccccc23)NC1=O [SEQ ID NO:125, [KRKWLW]] (cyclo(K[dR]K[dW]L[dW]))",–,>174,–,9,33,–,–
"CC(C)C[C@@H]1NC(=O)[C@@H](Cc2c[nH]c3ccccc23)NC(=O)[C@H](CCC(N)=O)NC(=O)[C@@H](Cc2c[nH]cn2)NC(=O)[C@H](CCCCN)NC(=O)[C@@H](Cc2c[nH]c3ccccc23)NC1=O [SEQ ID NO:120, [KHQWLW]] (cyclo(K[dH]Q[dW]L[dW]))",–,115.0,–,43,57,–,–
"CC(C)C[C@H]1NC(=O)[C@H](Cc2c[nH]c3ccccc23)NC(=O)[C@@H](Cc2ccccc2)NC(=O)[C@H](CCCCN)NC(=O)[C@@H](Cc2c[nH]c3ccccc23)NC(=O)[C@H](Cc2c[nH]cn2)NC(=O)[C@@H](CC(C)C)NC(=O)[C@H](Cc2c[nH]c3ccccc23)NC1=O [SEQ ID NO:99, [KFWLWLHW]] (cyclo(K[dF]W[dL]W[dL]H[dW]))",–,>25,–,21,21,–,–
"CC(C)C[C@H]1NC(=O)[C@H](CCCCN)NC(=O)[C@@H](Cc2c[nH]cn2)NC(=O)[C@H](CCC(N)=O)NC(=O)[C@@H](Cc2c[nH]cn2)NC(=O)[C@H](CCCCN)NC(=O)[C@@H](CC(C)C)NC(=O)[C@H](Cc2c[nH]c3ccccc23)NC1=O [SEQ ID NO:86, [KHQHKLWL]] (cyclo(K[dH]Q[dH]K[dL]W[dL]))",100,>200,100,–,–,–,–
"CC(C)C[C@@H]1NC(=O)[C@@H](Cc2c[nH]c3ccccc23)NC(=O)[C@H](CCCCN)NC(=O)[C@@H](Cc2ccccc2)NC(=O)[C@H](CCCCN)NC(=O)[C@@H](Cc2c[nH]c3ccccc23)NC1=O [SEQ ID NO:128, [KFKWLW]] (cyclo(K[dF]K[dW]L[dW]))",–,>61,–,14,43,–,–
"CC(C)C[C@H]1NC(=O)[C@H](Cc2c[nH]c3ccccc23)NC(=O)[C@@H](CO)NC(=O)[C@H](CCCCN)NC(=O)[C@@H](Cc2ccccc2)NC(=O)[C@H](Cc2c[nH]c3ccccc23)NC(=O)[C@@H](CC(C)C)NC(=O)[C@H](Cc2c[nH]c3ccccc23)NC1=O [SEQ ID NO:42, [KSWLWLWF]] (cyclo(K[dS]W[dL]W[dL]W[dF]))",–,>26,–,>26,>26,–,–
"CC(C)C[C@@H]1NC(=O)[C@@H](Cc2c[nH]c3ccccc23)NC(=O)[C@H](CCC(N)=O)NC(=O)[C@@H](CCCCN)NC(=O)[C@H](CCCCN)NC(=O)[C@@H](Cc2c[nH]c3ccccc23)NC1=O [SEQ ID NO:122, [KKQWLW]] (cyclo(K[dK]Q[dW]L[dW]))",–,>215,–,27,81,–,–
"CC(C)C[C@H]1NC(=O)[C@H](Cc2c[nH]c3ccccc23)NC(=O)[C@@H](CCCNC(=N)N)NC(=O)[C@H](CCC(N)=O)NC(=O)[C@@H](CCCCN)NC(=O)[C@H](Cc2c[nH]c3ccccc23)NC(=O)[C@@H](CC(C)C)NC(=O)[C@H](Cc2c[nH]c3ccccc23)NC1=O [[KQRWLWLW-HCl] (8), cyclo-(D-Lys-Gln-D-Arg-Trp-D-Leu-Trp-D-Leu-Trp)] (cyclo([dK]Q[dR]W[dL]W[dL]W))",8,70,8,–,–,–,–
"CC(C)C[C@H]1NC(=O)[C@H](Cc2c[nH]c3ccccc23)NC(=O)[C@@H](CO)NC(=O)[C@H](CCCCN)NC(=O)[C@@H](CO)NC(=O)[C@H](CCCNC(=N)N)NC(=O)[C@@H](CC(C)C)NC(=O)[C@H](Cc2c[nH]c3ccccc23)NC1=O [SEQ ID NO:84, [KSWLWLRS]] (cyclo(K[dS]W[dL]W[dL]R[dS]))",–,>62,–,9,12,–,–
"CC(C)C[C@@H]1NC(=O)[C@@H](Cc2c[nH]c3ccccc23)NC(=O)[C@H](Cc2c[nH]c3ccccc23)NC(=O)[C@@H](CCCNC(=N)N)NC(=O)[C@H](CCC(N)=O)NC(=O)[C@@H](CCCNC(=N)N)NC(=O)[C@H](Cc2c[nH]c3ccccc23)NC(=O)[C@@H](Cc2c[nH]c3ccccc23)NC1=O [SEQ ID NO:71, [QRWWLWWR]] (cyclo(Q[dR]W[dW]L[dW]W[dR]))",6.3,35,–,–,–,6.3,–
"CC(C)C[C@H]1NC(=O)[C@H](C)NC(=O)[C@@H](CC(C)C)NC(=O)[C@H](CCCCN)NC(=O)[C@@H](CO)NC(=O)[C@H](CCCCN)NC(=O)[C@@H](CC(C)C)NC(=O)[C@H](C)NC1=O [SEQ ID NO:53, [KSKLALAL]] (cyclo(K[dS]K[dL]A[dL]A[dL]))",35,>280,>280,–,–,–,–
"CC(C)C[C@@H]1NC(=O)[C@@H](Cc2c[nH]c3ccccc23)NC(=O)[C@H](CCCCN)NC(=O)[C@@H](Cc2c[nH]cn2)NC(=O)[C@H](CCCCN)NC(=O)[C@@H](Cc2c[nH]cn2)NC(=O)[C@H](CCCCN)NC(=O)[C@@H](Cc2c[nH]c3ccccc23)NC1=O [SEQ ID NO:85, [KHKHKWLW]] (cyclo(K[dH]K[dH]K[dW]L[dW]))",6,150,6,–,–,–,–
"CC(C)C[C@H]1NC(=O)[C@H](Cc2ccccc2)NC(=O)[C@@H](CCCCN)NC(=O)[C@H](CO)NC(=O)[C@@H](CO)NC(=O)[C@H](CCCCN)NC(=O)[C@@H](CC(C)C)NC(=O)[C@H](Cc2ccccc2)NC1=O [SEQ ID NO:79, [KSSKFLFL]] (cyclo(K[dS]S[dK]F[dL]F[dL]))",43,>200,43,–,–,–,–
"CC(C)C[C@@H]1NC(=O)[C@@H](Cc2c[nH]c3ccccc23)NC(=O)[C@H](CCCCN)NC(=O)[C@@H](CO)NC(=O)[C@H](CCCCN)NC(=O)[C@@H](Cc2c[nH]c3ccccc23)NC1=O [SEQ ID NO:126, [KSKWLW]] (cyclo(K[dS]K[dW]L[dW]))",–,>65,–,19,38,–,–
[KSOLWLWL] [SEQ ID NO:63],12,–,25,–,–,–,150
"CC(C)C[C@H]1NC(=O)[C@H](Cc2c[nH]c3ccccc23)NC(=O)[C@@H](CCCCN)NC(=O)[C@H](CO)NC(=O)[C@@H](CO)NC(=O)[C@H](CCCCN)NC(=O)[C@@H](CC(C)C)NC(=O)[C@H](Cc2c[nH]c3ccccc23)NC1=O [SEQ ID NO:82, [KSSKWLWL]] (cyclo(K[dS]S[dK]W[dL]W[dL]))",27,>220,27,–,–,–,–
